Results taken from patent US20240261418A1, “SOS1 DEGRADING AGENT AND PREPARATION METHOD THEREFOR AND APPLICATION THEREOF” (SHANGHAI LEADINGTAC PHARMACEUTICAL CO. LTD., priority 2021, published 2024).

Target: T1, SOS1 protein (Homo sapiens, UniProt Q07889)
T1 sequence (Q07889 1-1333): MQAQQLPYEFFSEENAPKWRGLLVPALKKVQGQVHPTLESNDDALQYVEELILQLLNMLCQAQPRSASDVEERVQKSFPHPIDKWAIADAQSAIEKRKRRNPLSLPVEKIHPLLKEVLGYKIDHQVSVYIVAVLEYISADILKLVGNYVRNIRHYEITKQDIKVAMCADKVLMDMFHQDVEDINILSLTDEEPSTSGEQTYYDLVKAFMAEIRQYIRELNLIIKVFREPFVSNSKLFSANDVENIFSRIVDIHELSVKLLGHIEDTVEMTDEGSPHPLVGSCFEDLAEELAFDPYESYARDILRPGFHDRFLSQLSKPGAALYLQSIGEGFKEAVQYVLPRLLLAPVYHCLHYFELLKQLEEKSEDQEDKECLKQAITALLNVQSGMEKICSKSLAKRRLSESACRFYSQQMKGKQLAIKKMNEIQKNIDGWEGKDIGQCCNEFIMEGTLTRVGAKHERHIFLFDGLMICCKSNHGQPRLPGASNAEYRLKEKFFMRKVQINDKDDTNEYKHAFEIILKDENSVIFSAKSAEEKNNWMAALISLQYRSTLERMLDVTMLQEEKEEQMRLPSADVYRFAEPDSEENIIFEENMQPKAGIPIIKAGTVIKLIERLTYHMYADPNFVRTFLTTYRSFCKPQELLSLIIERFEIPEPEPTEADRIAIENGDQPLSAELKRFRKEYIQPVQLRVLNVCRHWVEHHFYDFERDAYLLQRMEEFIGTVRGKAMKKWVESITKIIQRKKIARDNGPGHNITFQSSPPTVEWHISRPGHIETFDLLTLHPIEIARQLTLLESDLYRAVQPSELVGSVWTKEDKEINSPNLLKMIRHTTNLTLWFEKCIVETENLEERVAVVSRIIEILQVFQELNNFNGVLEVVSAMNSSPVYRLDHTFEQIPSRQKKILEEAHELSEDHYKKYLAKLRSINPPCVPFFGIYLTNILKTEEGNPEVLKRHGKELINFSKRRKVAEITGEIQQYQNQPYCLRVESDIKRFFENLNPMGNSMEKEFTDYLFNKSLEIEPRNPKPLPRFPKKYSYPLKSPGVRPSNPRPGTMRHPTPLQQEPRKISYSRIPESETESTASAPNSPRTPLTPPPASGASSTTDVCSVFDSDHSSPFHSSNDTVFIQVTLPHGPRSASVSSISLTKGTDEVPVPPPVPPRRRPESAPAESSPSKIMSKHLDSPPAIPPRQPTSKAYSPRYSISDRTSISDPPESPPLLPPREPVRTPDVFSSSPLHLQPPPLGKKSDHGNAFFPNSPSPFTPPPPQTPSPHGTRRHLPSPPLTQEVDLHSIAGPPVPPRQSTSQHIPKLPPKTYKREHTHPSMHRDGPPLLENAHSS
Test: SOS1 degradation assay (Western blot) in NCI-H358 cells
Assay type: cell-based
Details: NCI-H358 (KRAS G12C), 24 h
Procedure: The specific procedures were as follows:
0.95 mL of cells were seeded into each well of a 24-well cell culture plate to achieve a cell density of 5×10^5 cells/well; the cell plate was incubated in an incubator at 37° C. with 5% CO2 overnight. Then 50 μL of the compound solution after dilution was added to each of the wells with the corresponding cells, so that the final concentration of the compound was in a range of 0.03-3000 nM.
After dosing, the cell plate was incubated in an incubator at 37° C. with 5% CO2 for 24 h. […] After the plate was left to stand on ice for 30 min, the protein lysate in each well was transferred to a 1.5 mL centrifuge tube and centrifuged at 15000 g for 20 min at 4° C. The cell lysate supernatant after centrifugation was cryopreserved at −80° C. for testing and was used for determining the degradation level of the SOS1 protein by a WB method. The concentration of total protein in the cell lysate supernatant was determined using the BCA Protein Quantification Kit (Tiangen, PA115-02).
The concentration of total protein in the cell lysate was determined by BCA. The total protein was adjusted to 0.5 μg/μL with PBS and 5×SDS- PAGE protein loading buffer (Beyotime, P001L), incubated in a water bath at 100° C. for 15 min, incubated in an ice bath on ice for 5 min, centrifuged at 14000 g for 1 min at 4° C., and mixed well as a loading sample for WB. Protein electrophoresis was performed on a precast gel (KeyGEN, KGMG010W15) with a loading volume of 10 μL (total protein: 5 μg) using a Tris-MOPS-SDS running solution (Adamas, P1598253) at a constant voltage of 120 V for 55 min. After the electrophoresis, the protein on the gel strip was transferred to a PVDF membrane at a constant current of 250 mA for 65 min. After the membrane transfer, the membrane was incubated in 1× QuickBlock blocking buffer (Beyotime, P0235) for 30 min at room temperature. […] The protein map was subjected to gray value analysis by the chemiluminescence imaging system from Clinx. […] Then the degradation rate was calculated by comparing the gray correction value with the gray correction value of the control group. Then nonlinear curve fitting was performed by GraphPad Prism 8 in the logarithmic concentration-inhibition rate to obtain the DC50 and Dmax values of the compounds.

DC50 | Dmax | Compound
< 0.05 µM | 80 to 100% | COc1cc2nc(C)nc(N[C@H](C)c3cc(-c4c(Cl)cccc4CN(C)C)cs3)c2cc1[C@H]1CC[C@H](C(=O)N2CCN(CC3CCC4(CC3)CCN(C(=O)c3ccc(Cl)c(N5CCC(=O)NC5=O)c3)CC4)CC2)CC1 [Example 1, 1-(2-chloro-5-(9-((4-((1R,4R)-4-(4-(((R)-1-(4-(2-chloro-6-((dimethylamino)methyl)phenyl)thien-2-yl)ethyl)amino)-7-methoxy-2-methylquinazolin-6-yl)cyclohexane-1-carbonyl)piperazin-1-yl)methyl)-3-azaspiro[5.5]undecane-3-carbonyl)phenyl)dihydropyrimidine-2,4(1H,3H)-dione]
< 0.05 µM | 80 to 100% | COc1cc2nc(C)nc(N[C@H](C)c3cc(-c4c(Cl)cccc4CN(C)C)cs3)c2cc1[C@H]1CC[C@H](C(=O)N2CCC(CCOCC3CCN(C(=O)c4ccc(Cl)c(N5CCC(=O)NC5=O)c4)CC3)CC2)CC1 [Example 5, 1-(2-chloro-5-(4-((2-(1-((1R,4R)-4-(4-(((R)-1-(4-(2-chloro-6-((dimethylamino)methyl)phenyl)thien-2-yl)ethyl)amino)-7-methoxy-2-methylquinazolin-6-yl)cyclohexane-1-carbonyl)piperidin-4-yl)ethoxy)methyl)piperidine-1-carbonyl)phenyl)dihydropyrimidine-2,4(1H,3H)-dione]
